Results reported in paper PMC10023972, “Saturated fatty acid– and/or monounsaturated fatty acid–containing phosphatidic acids selectively interact with heat shock protein 27” (The Journal of Biological Chemistry, 2023).

Biological target: T1, HSP27 (heat shock protein 27, HSPβ1; 6×His-HSP27) (Homo sapiens, UniProt P04792)
T1 construct: gene HSPB1; full length (205 aa), N-terminal 6×His tag (pET-28a), E. coli Rosetta 2 (DE3), Ni-NTA, ~30 kDa band; large oligomer (more than octamer)
Test: liposome co-sedimentation (ultracentrifugation), Western blot densitometry
Format: binding
Details: unreliable; extrapolated beyond the 0-25 μM range; PS in liposomes (PS/egg PC/cholesterol 20/50/30 mol%), 0.1 μM protein, pH 7.4, 4 °C

T1 sequence (P04792 whole entry): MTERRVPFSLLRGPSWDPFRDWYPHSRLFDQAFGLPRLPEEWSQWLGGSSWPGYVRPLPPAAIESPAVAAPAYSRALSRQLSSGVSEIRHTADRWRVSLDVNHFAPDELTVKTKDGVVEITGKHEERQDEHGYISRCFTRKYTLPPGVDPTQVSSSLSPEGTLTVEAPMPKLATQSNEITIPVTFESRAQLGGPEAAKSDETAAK

## CCCCCCCCCCCCCCCC(=O)OC[C@H](COP(=O)(O)OC[C@H](N)C(=O)O)OC(=O)CCCCCCCCCCCCCCC [16:0/16:0-PS, 1,2-dipalmitoyl-sn-glycero-3-phosphoserine]
  extrapolated Kd: ~ 100 μM
